We go through four compounds from patent publication US20240245856A1, “Electromechanical Devices for the Burst Release of Indefinitely Stable Dry Powder Drugs” (Massachusetts Institute of Technology, priority 2023, published 2024).

Like-named read-outs stand apart in the source and are kept apart here. A value given as a limit tells only on which side of the number the result lay.

Data set [1] relates to C57/BL6 mice with chemically induced diabetes via Streptozotocin (STZ). Description: Post-fasting glucagon release in diabetic mice (blood glucose). To be noted: glucagon release studies in diabetic mice. The format is in vivo. The method, then:
In an initial set of experiments (results shown in FIG. 5C) mice were fasted to induce mild hypoglycemia baseline BG 113±1.9 mg dl^−1). Wireless release is triggered at time t=0 minutes by placing the awake, freely moving mice in a modified enclosure capable of providing wireless power at 13.56 MHz. Successive measurements then reveal a rapid rise in BG measurements relative to baselines, with a peak value ([…]) occurring at tmax=15 minutes following release. […] Following release, explantation confirmed complete opening and dissolution of the pills (FIG. 22).
0.5 μl volumes of blood were collected via tail-pricks with 25-27G and measured with a commercial handheld blood glucose meter (e.g., a Clarity, BG1000). The upper limit of measurements is 600 mg/dl on these systems and values above this were recorded as 600 mg/dl for analysis. Non-fasting values were recorded for 7-10 days following implantation, after which BG values were recorded following a 2.5 hour fast. Mice were weighed before and after fasting periods. Measurements in experimental groups (O2, Non O2 controls) were recorded in triplicate to account for any variability in readings and averaged.
(i) Post-fasting studies: These studies were performed […] after device implantation in STZ-induced diabetic BL6 mice. […] BG values recorded immediately following release served as t=0 minutes measurements. […]

Data set [2] deals with blood glucose concentrations. The note with it: administration for acute hypoglycemia; cited from earlier work.
A short description of data set [3]: HPLC drug dissolution testing of glucagon pills in PBS. The format is physicochemical. To be noted: 37° C., across a range of loading fractions. The text has this:
Capabilities in closed-loop burst release enabled by wireless communication between commercially available biosensors and emergency rescue devices represent a feature of this technology. One example is the combination of glucagon release with CGM technology for fully closed-loop glucose-responsive hypoglycemic rescue during periods of sleep or hypoglycemia unawareness and in pediatric patients who are unable to self-administer glucagon. […] Benchtop testing in a physiological mimic glucose solution was also performed. […]
Several known concentrations of glucagon (x, unit μM) were tested with the HPLC and the corresponding absorbance peak areas (y, A.U.) were measured. […] This equation yields glucagon concentrations of testing solutions at different time points via measurements of absorbance peak areas. […]
HPLC was performed under the following conditions using an Agilent InfinityLab Poroshell 120 (EC-C18, 4.6 mm×100 mm, 2.7 μm particle size) at 25° C., using 0.1% formic acid in water (solvent A) and acetonitrile (solvent B) at 0.6 ml/min. […] Glucagon UV absorption was monitored at 280 nm with retention time (Rt)=19.2 min.

For data set [4] the following is noted: cited from earlier work.
The test system of the next data set is healthy C57/BL6J mice. To be noted: for time after release at which increase in BG is evident / time after release at which increase in HR is evident: 1 mg pill, 5%-95% Epinephrine-Lactose, subcutaneous, mice. As for the experimental part: To test this, studies with epinephrine, a naturally occurring circulating neurotransmitter hormone produced by the adrenal medulla, were performed and used as emergency medication in the treatment of anaphylaxis, cardiac arrest, asthma, and hypotension. Epinephrine release targets adrenergic receptors is accompanied by increases in heart rate (HR).
In vivo epinephrine release involved studies on anesthetized adult, male, healthy C57/BL6J mice. Mice were implanted with emergency rescue devices containing epinephrine doses of 1.4 mg/kg via the surgical procedures described above and allowed to recover for a 3-day period. On day 3, mice were carefully anesthetized via the flow of 1% isoflurane, and hair around the dorsal neck region was removed via the application of a depilatory cream (e.g., Nair). A collar-mounted optical probe (e.g., a MouseOx, Starr Life Science, Oakmont, PA) was then used to track heart rate. Additional biomarkers measured by the probe included oxygen saturation (SpO2), pulse-width distension (a measure of blood flow) and breath rate. Animals were monitored until their heart rate reached steady values of 380-400 bpm. A primary transmitter antenna was then brought into close proximity for 2-5 minutes to induce wireless release. Anesthetized animals were then monitored via optical probe measurements for 30 minutes, followed by euthanasia and explantation to evaluate opening and drug dissolution.

Data set [5] can be described thus: In vivo IVIS fluorescence imaging of release from subcutaneously implanted device. The arrangement: species or system mice. The note with it: for biodistribution (IVIS imaging of major organs): organs imaged 40 minutes after subcutaneous release. The method, then: Imaging studies with fluorescently labeled lyophilized insulin-dye conjugates (Ins-Cy7) validate burst release in vivo, over timescales of about 10 minutes. Devices (e.g., device 100) were implanted in subcutaneous sites, with release apertures 171 facing into muscle beds (the complete surgical implantation procedure is disclosed below).
An equivalent set of studies with glucagon conjugated with cy7 (GCG-cy7) reveal similar release profiles as illustrated in FIG. 5A with strong fluorescence visible within the first 20 minutes following release. […] As shown herein, dry-powder injection directly into subcutaneous sites may function as a mechanism to both maintain long-term drug stability and ensure rapid action following release.
Animals were anesthetized via isoflurane and placed in an in vivo imaging system (IVIS). Baseline fluorescent measurements tuned to emission peaks of cy7 (exposure time 3 seconds, 640 nm<wavelength<840 nm) established pre-release fluorescence profiles. A primary antenna placed in close proximity to the device for about 1 minute induced wireless drug release. Sequential imaging following release at intervals of about 5 minutes then allowed for imaging of fluorescence signals resulting from drug dissolution and diffusion. […]

Where [6] appears, read: 30 minutes after release, 1 mg pill 5%-95% Epinephrine-Lactose, n=3.

In the case of glucagon, in data set [1], the “time to increase in blood glucose after release” value is below 10 min. In data set [2], the “time to increase in blood glucose concentrations” value was below 10 min. Further, the “dissolution of dry powder drug (HPLC)” value in data set [3] is recorded as “rapid dissolution”. In addition, the stability in solution in data set [4] was below 1 days.

As to `CNC[C@H](O)c1ccc(O)c(O)c1` [Epinephrine], in the data set on healthy C57/BL6J mice, the “time after release at which increase in BG is evident” value was at most 10 min and the “time after release at which increase in HR is evident” value was at most 10 min. In addition, in the data set on healthy C57/BL6J mice (listed as epinephrine), the “time after release at which increase in BG is evident” value is at most 5 min and the “time after release at which increase in HR is evident” value is at most 5 min. In the data set with healthy C57/BL6J mice (setting [6]), this compound registered a ΔBG of 66 ± 23 mg/dL and a ΔHR of 140±33 bpm. Besides, the “correlation of other biomarkers (heart rate, SpO2, pulse-width distension) with release” value with healthy C57/BL6J mice (pills at 0.3 mg/kg and 1.5 mg/kg versus sham implants) is “weak correlation”.

On to “Ins-Cy7: fluorescently labeled lyophilized insulin-dye conjugates; 1 mg Insulin-cy7-Lactose (4%-96% by weight) pills”, for which the “fluorescence before wireless release” value in data set [5] (implanted sealed device, until release 7 days after implantation) is “no detectable fluorescence”. For the same compound, in data set [5], the “biodistribution (IVIS imaging of major organs)” value was “confined to the liver”. For the same compound, the “timescale of burst release in vivo” value in data set [5] (subcutaneous device, mice, IVIS) is reported as “about 10 minutes”. Further, the “time after release at which fluorescence is detectable” value in data set [5] (subcutaneous site, release on day 7) is at most 5 min. In addition, in data set [5] (within the first 15 minutes following release, n=3 mice), the “increase in local fluorescence intensity (ROI)” value was “roughly tenfold”.

In the case of “GCG-cy7: glucagon conjugated with cy7; 1-mg glucagon-lactose (4%-96% by weight) pill labeled with fluorescent dye”, in data set [5], the “biodistribution (IVIS imaging of major organs)” value is “confinement to liver site”. In data set [5] (release 2 days after subcutaneous implantation), the “time after release at which strong fluorescence is visible” value is at most 20 min.
